Laboratory results taken from patent US6248736A, “4-oxo-1,4-dihydro-3-quinolinecarboxamides as antiviral agents” (Pharmacia & Upjohn Company, priority 1999, dated 2001).
Read-outs that look alike come from different tables or passages of the source.

Legend:
HCMV polymerase = molecular target: T1, HCMV polymerase (Human cytomegalovirus, UniProt P08546); assay: biochemical
T1 construct: made in house; host or cells: recombinant baculovirus-infected SF-9 cells
Procedure: (§1) The HCMV polymerase assay is performed using a scintillation proximity assay (SPA) as described in several references, such as N. D. Cook, et al., Pharmaceutical Manufacturing International, pages 49-53 (1992); K. Takeuchi, Laboratory Practice, September issue (1992); U.S. Pat. No. 4,568,649 (1986); which are incorporated by reference herein. Reactions are performed in 96-well plates. The assay is conducted in 100 μl volume with 5.4 mM HEPES (pH 7.5), 11.7 mM KCl, 4.5 mM MgCl2, 0.36 mg/ml BSA, and 90 nM ^3 H-dTTP. Assays are run with and without CHAPS, (3-[(3-Cholamidopropyl)-dimethylammonio]-1-propane-sulfonate) at a final concentration of 2 mM. HCMV polymerase is diluted in enzyme dilution buffer containing 50% glycerol, 250 mM NaCl, 10 mM HEPES (pH 7.5), 100 μg/ml BSA, and 0.01% sodium azide. The HCMV polymerase, which is expressed in recombinant baculovirus-infected SF-9 cells and purified according to literature procedures, is added at 10% (or 10 μl) of the final reaction volume, i.e., 100 μl. Compounds are diluted in 50% DMSO and 10 μl are added to each well. Control wells contain an equivalent concentration of DMSO. Unless noted otherwise, reactions are initiated via the addition of 6 nM biotinylated poly(dA)-oligo(dT) template/primer to reaction mixtures containing the enzyme, substrate, and compounds of interest. Plates are incubated in a 25 C or 37 C H2 O bath and terminated via the addition of 40 μl/reaction of 0.5 M EDTA (pH 8) per well. Reactions are terminated within the time-frame during which substrate incorporation is linear and varied depending upon the enzyme and conditions used, i.e., 30 min. for HCMV polymerase. Ten μl of streptavidin-SPA beads (20 mg/ml in PBS/10% glycerol) are added following termination of the reaction. Plates are incubated 10 min. at 37 C, then equilibrated to room temperature, and counted on a Packard Topcount. Linear regressions are performed and IC50 's are calculated using computer software.
A modified version of the above HCMV polymerase assay is performed as described above, but with the following changes: Compounds are diluted in 100% DMSO until final dilution into assay buffer. In the previous assay, compounds are diluted in 50% DMSO. 4.5 mM dithiotherotol (DTT) is added to the polymerase buffer. […] Other viral polymerase assays are performed using procedures similar to those described above.

HSV polymerase = HSV polymerase (Human herpesvirus 1, UniProt P04293); assay: HSV polymerase assay (procedure similar to the HCMV polymerase assay); type: biochemical
Procedure: as §1, with “software. […]” for “software.”

VZV polymerase = VZV polymerase (Varicella-zoster virus, UniProt P09252); assay: VZV polymerase assay (procedure similar to the HCMV polymerase assay); type: biochemical
Procedure: as §1, with “software. […]” for “software.”

[1] = HCMV polymerase, modified SPA, compounds in 100% DMSO, 4.5 mM DTT added

Sequence of HSV polymerase (P04293 whole entry): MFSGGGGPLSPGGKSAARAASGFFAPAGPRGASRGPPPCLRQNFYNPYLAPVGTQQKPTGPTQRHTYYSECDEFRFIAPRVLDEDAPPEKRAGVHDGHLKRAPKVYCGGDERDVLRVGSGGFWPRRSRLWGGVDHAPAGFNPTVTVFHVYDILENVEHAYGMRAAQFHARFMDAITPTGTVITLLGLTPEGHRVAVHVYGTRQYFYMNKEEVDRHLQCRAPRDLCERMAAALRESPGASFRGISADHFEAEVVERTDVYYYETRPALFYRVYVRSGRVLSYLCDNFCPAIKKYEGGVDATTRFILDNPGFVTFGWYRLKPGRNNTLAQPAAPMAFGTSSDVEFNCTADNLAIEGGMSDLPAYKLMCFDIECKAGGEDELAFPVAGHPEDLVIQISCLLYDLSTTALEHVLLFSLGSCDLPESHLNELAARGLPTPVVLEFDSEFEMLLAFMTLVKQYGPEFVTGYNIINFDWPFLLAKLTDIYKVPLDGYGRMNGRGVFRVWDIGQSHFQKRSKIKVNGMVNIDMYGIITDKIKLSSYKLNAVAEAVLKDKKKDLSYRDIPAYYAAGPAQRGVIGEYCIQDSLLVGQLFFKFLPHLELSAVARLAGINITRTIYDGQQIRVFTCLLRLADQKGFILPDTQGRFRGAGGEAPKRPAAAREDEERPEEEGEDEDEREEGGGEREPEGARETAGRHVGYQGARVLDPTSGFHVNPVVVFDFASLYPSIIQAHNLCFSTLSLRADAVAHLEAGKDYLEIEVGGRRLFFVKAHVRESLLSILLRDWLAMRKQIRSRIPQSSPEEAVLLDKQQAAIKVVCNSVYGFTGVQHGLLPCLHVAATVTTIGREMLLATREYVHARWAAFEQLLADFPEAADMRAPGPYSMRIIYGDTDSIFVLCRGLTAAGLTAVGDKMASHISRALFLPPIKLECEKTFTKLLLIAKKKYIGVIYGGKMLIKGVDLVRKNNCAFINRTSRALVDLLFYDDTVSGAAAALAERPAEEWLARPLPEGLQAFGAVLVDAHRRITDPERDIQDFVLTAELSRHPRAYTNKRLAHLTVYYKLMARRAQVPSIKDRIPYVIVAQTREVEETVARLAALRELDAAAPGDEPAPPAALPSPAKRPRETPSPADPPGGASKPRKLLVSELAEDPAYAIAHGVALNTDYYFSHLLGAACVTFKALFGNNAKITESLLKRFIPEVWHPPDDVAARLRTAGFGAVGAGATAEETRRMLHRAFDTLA
T1 sequence (P08546 whole entry): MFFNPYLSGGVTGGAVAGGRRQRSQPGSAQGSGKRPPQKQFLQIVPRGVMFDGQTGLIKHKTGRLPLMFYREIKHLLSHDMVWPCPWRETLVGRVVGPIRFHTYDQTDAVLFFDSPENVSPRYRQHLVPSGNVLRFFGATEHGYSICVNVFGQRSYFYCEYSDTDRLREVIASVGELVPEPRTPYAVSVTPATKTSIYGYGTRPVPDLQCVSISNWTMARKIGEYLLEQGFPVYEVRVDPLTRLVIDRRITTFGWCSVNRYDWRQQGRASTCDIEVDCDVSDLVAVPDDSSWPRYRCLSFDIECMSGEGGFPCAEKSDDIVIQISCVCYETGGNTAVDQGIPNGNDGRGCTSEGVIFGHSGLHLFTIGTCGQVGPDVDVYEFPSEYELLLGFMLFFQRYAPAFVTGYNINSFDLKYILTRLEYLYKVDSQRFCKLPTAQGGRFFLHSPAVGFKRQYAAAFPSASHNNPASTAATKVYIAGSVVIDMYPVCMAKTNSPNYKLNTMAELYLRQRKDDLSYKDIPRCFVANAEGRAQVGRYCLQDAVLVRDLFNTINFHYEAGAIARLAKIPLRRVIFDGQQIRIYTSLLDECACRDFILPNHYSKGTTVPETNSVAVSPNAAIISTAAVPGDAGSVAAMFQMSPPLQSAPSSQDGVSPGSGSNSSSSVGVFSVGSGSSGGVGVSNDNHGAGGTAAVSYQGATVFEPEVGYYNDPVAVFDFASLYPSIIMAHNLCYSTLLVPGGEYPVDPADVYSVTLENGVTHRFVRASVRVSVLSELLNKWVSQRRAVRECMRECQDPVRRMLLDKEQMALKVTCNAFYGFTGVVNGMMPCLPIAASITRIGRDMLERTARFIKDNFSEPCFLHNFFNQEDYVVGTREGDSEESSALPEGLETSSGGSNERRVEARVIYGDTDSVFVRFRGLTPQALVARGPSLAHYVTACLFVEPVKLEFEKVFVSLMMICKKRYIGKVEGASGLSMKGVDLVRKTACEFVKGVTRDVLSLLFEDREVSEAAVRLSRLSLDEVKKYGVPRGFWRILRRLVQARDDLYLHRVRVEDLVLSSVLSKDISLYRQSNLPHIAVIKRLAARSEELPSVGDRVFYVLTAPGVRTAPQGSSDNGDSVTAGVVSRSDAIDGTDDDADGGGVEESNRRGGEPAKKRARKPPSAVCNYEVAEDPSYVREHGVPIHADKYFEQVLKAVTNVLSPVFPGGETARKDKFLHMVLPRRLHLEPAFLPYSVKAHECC
Sequence of VZV polymerase (P09252 whole entry): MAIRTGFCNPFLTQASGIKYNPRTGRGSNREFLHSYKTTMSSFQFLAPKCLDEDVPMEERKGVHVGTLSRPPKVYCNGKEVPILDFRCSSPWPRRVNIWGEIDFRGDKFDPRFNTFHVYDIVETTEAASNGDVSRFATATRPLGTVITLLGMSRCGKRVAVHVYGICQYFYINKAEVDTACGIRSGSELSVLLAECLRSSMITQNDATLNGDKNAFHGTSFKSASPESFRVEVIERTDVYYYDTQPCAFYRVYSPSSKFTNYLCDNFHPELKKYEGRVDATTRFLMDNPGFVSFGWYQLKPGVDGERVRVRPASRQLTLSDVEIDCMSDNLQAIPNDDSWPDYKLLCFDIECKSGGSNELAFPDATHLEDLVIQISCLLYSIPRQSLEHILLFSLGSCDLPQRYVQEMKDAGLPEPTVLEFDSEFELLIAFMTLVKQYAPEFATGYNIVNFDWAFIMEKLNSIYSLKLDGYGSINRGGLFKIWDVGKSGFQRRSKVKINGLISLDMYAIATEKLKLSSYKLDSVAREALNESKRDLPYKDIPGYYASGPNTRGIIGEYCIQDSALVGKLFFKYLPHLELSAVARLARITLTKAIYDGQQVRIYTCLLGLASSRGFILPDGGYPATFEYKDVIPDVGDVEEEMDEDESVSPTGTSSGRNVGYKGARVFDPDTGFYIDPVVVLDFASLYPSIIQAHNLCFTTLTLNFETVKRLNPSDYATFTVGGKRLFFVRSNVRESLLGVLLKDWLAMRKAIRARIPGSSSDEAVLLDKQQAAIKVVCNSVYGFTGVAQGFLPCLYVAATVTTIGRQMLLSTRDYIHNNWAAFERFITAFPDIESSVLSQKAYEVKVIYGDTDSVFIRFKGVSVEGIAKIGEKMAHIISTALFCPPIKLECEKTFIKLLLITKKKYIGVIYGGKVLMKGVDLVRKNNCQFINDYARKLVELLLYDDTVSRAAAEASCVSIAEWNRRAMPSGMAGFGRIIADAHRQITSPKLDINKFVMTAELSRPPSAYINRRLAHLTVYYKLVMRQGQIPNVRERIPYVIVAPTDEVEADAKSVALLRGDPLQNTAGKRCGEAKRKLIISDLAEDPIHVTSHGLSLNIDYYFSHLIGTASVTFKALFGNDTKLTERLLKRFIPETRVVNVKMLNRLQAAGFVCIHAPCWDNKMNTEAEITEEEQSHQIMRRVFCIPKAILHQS

IC50 (HCMV polymerase; [1]) [nM]	IC50 (HSV polymerase) [nM]	IC50 (VZV polymerase) [nM]	IC50 (HCMV polymerase) [nM]	SMILES
500	1800	2000		Cn1cc(C(=O)NCc2ccc(Cl)cc2)c(=O)c2cc(C(C)(C)CCO)ccc21 [Example 1, N-(4-chlorobenzyl)-6-(3-hydroxy-1,1-dimethylpropyl)-1-methyl-4-oxo-1,4-dihydro-3-quinolinecarboxamide]
7800				Cn1cc(C(=O)NCc2ccc(Cl)cc2)c(=O)c2cc(CO)ccc21 [Example 2, N-(4-Chlorobenzyl)-6-(hydroxymethyl)-1-methyl-4-oxo-1,4-dihydro-3-quinolinecarboxamide]
400	740	440		Cn1cc(C(=O)NCc2ccc(Cl)cc2)c(=O)c2cc(CN3CCOCC3)ccc21 [Example 3, N-(4-Chlorobenzyl)-1-methyl-6-(4-morpholinylmethyl)-4-oxo-1,4-dihydro-3-quinolinecarboxamide]
370				O=C(NCc1ccc(Cl)cc1)c1cn(CCO)c2ccc(CCCO)cc2c1=O [Example 4, N-(4-Chlorobenzyl)-1-(2-hydroxyethyl)-6-(3-hydroxypropyl)-4-oxo-1,4-dihydro-3-quinolinecarboxamide]
480	320	410		Cn1cc(C(=O)NCc2ccc(Cl)cc2)c(=O)c2cc(CCCO)ccc21 [Example 5, N-(4-Chlorobenzyl)-6-(3-hydroxypropyl)-1-methyl-4-oxo-1,4-dihydro-3-quinolinecarboxamide]
			2800	CC(C)(C)n1cc(C(=O)NCc2ccc(Cl)cc2)c(=O)c2cc(CCCO)ccc21 [Example 6, 1-(tert-Butyl)-N-(4-chlorobenzyl)-6-(3-hydroxypropyl)-4-oxo-1,4-dihydro-3-quinolinecarboxamide]
2500				Cn1cc(C(=O)NCc2ccc(Cl)cc2)c(=O)c2cc(CN3CCSCC3)ccc21 [Example 7, N-(4-Chlorobenzyl)-1-methyl-4-oxo-6-(4-thiomorpholinyl-methyl)-1,4-dihydro-3-quinolinecarboxamide]
2600				Cn1cc(C(=O)NCc2ccc(Cl)cc2)c(=O)c2cc(CN3CCS(=O)(=O)CC3)ccc21 [Example 8, N-(4-chlorobenzyl)-6-[(1,1-dioxo-1',4-thiazinan-4-yl)methyl]-1-methyl-4-oxo-1,4-dihydro-3-quinolinecarboxamide]
4700				Cn1cc(C(=O)NCc2ccc(Cl)cc2)c(=O)c2cc(CN3CC[S+]([O-])CC3)ccc21 [Example 9, N-(4-chlorobenzyl)-1-methyl-4-oxo-6-[(1-oxo-1',4-thiazinan-4-yl)methyl]-1,4-dihydro-3-quinolinecarboxamide]
			1000	Cn1cc(C(=O)NCc2ccc(Cl)cc2)c(=O)c2cc(CN3CCOCC3)cc(F)c21 [Example 10, N-(4-chlorobenzyl)-8-fluoro-1-methyl-6-(4-morpholinylmethyl)-4-oxo-1,4-dihydro-3-quinolinecarboxamide]
